Values quoted from earlier work in patent US20150038526A1, “FLUORINE-CONTAINING 5-[2-(PYRID-3-YL)-ETHYL]-2,3,4-TETRAHYDRO-1H-PYRIDO[4,3-B]INDOLES AS AGENTS FOR REDUCING UNCONTROLLED PROTEIN AGGREGATION” (FEDERALNOE GOSUDARSTVENNOE BUDZHETNOE UCHREZHDENIE NAUKI …, priority 2011, published 2015).

Tested on: gamma-synuclein protein
Settings: tissues of the nervous system of model animals

In the case of Cc1ccc2c(c1)c1c(n2CCc2ccc(C)nc2)CCN(C)C1 [Dimebon], the “formation and/or elimination of amyloid-like inclusions formed by gamma-synuclein” value is given as “modulates the molecular cellular processes of formation and/or elimination of pathological protein depositions”.
